Biological target: T1, human LXRβ (Homo sapiens, UniProt P55055)
T1 construct: expressed in transfected cells; host or cells: HEK293 cells (ATCC CRL-1573), transient transfection with pFA-hLXRβ/GAL4 and pUAS
T1 sequence (P55055 222-460 limits assumed): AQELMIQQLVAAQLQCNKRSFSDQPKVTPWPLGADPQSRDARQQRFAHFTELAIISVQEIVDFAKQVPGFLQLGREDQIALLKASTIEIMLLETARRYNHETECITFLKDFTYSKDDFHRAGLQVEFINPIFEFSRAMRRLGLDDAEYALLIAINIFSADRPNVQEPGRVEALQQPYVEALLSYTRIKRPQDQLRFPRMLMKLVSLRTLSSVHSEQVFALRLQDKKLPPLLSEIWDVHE
Experiment: Assay for Transcriptional Activity of LXRβ (GAL4-hLXRβ LBD luciferase reporter, transient transfection)
Format: cell-based
Conditions: HEK293 cells transfected with pFA-hLXRβ/GAL4 and pUAS, 24 hours; for Emax: fold value in comparison with the control (DMSO-treated group); for EC50: increase of transcriptional activity of LXRβ, average of three independent tests
How it was run: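 EC50 values, averaged over three independent runs, come from a four-parameter fit of 9-point half-log curves spanning 0.01–50 μM. Luciferase output was read in lysed HEK293 cells 24 h after dosing at 37 °C, following transient transfection with a GAL4-human LXRβ LBD fusion plus GAL4-responsive reporter.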

Q: How did the Emax turn out when `CN(C)S(=O)(=O)N1CC=C(c2cccc(C3CC(C(O)(C(F)(F)F)C(F)(F)F)=NN3c3ccccc3Cl)c2)CC1` (stereo not shown) [Example 240, 1-(2-chloro-phenyl)-5-[3-(1-dimethylsulfamoyl-1,2,3,6-tetrahydropyridin-4-yl)-phenyl]-3-[di-(trifluoromethyl)-hydroxy-methyl]-4,5-dihydro-1H-pyrazole] was run?
A: 44 fold

Q: And the EC50?
A: 157 nM

Q: How did the Emax turn out when `CC(=O)c1ccccc1-c1ccc(C2CC(C(O)(C(F)(F)F)C(F)(F)F)=NN2c2ccccc2Cl)cc1` (stereo not shown) [Example 241, 5-(2′-acetyl-biphenyl-4-yl)-1-(2-chloro-phenyl)-3-[di-(trifluoromethyl)-hydroxy-methyl]-4,5-dihydro-1H-pyrazole] was run?
A: 47 fold

Q: What about the EC50 of the same molecule?
A: 3350 nM

Q: With `COc1ccc(-c2ccc(C3CC(C(O)(C(F)(F)F)C(F)(F)F)=NN3c3ccccc3Cl)cc2)cc1` (stereo not shown) [Example 242, 1-(2-chloro-phenyl)-5-(4′-methoxy-biphenyl-4-yl)-3-[di-(trifluoromethyl)-hydroxy-methyl]-4,5-dihydro-1H-pyrazole] as the molecule, how does the Emax read?
A: 89 fold

Q: What about the EC50 of the same molecule?
A: 14100 nM

Q: Which Emax does the source give for `CSc1ccc(-c2ccc(C3CC(C(O)(C(F)(F)F)C(F)(F)F)=NN3c3ccccc3Cl)cc2)cc1` (stereo not shown) [Example 243, 1-(2-chloro-phenyl)-5-[4′-(methylsulfanyl)-biphenyl-4-yl]-3-[di-(trifluoromethyl)-hydroxy-methyl]-4,5-dihydro-1H-pyrazole] here?
A: 112 fold

Q: And the EC50?
A: 617 nM

Q: What does the source list for `CS(=O)(=O)c1ccc(-c2ccc(C3CC(C(O)(C(F)(F)F)C(F)(F)F)=NN3c3ccccc3Cl)cc2)cc1` (stereo not shown) [Example 244, 1-(2-chloro-phenyl)-5-[4′-(methanesulfonyl)-biphenyl-4-yl]-3-[di-(trifluoromethyl)-hydroxy-methyl]-4,5-dihydro-1H-pyrazole]?
A: Emax: 100 fold; EC50: 298 nM

Q: Which results are given for `COc1cccc(OC)c1-c1ccc(C2CC(C(O)(C(F)(F)F)C(F)(F)F)=NN2c2ccccc2Cl)cc1` (stereo not shown) [Example 245, 1-(2-chloro-phenyl)-5-(2′,6′-dimethoxy-biphenyl-4-yl)-3-[di-(trifluoromethyl)-hydroxy-methyl]-4,5-dihydro-1H-pyrazole]?
A: Emax: 57 fold; EC50: 2430 nM

Q: Which results are given for `OC(C1=NN(c2ccccc2Cl)C(c2ccc(-c3ccc(F)cc3)cc2)C1)(C(F)(F)F)C(F)(F)F` (stereo not shown) [Example 246, 1-(2-chloro-phenyl)-5-(4′-fluoro-biphenyl-4-yl)-3-[di-(trifluoromethyl)-hydroxy-methyl]-4,5-dihydro-1H-pyrazole]?
A: Emax: 47 fold; EC50: 1410 nM

Q: Which results are given for `OC(C1=NN(c2ccccc2Cl)C(c2ccc(-c3ccc(C(F)(F)F)cc3)cc2)C1)(C(F)(F)F)C(F)(F)F` (stereo not shown) [Example 247, 1-(2-chloro-phenyl)-5-[4′-(trifluoromethyl)-biphenyl-4-yl]-3-[di-(trifluoromethyl)-hydroxy-methyl]-4,5-dihydro-1H-pyrazole]?
A: Emax: 33 fold; EC50: 2030 nM

Q: For `OC(C1=NN(c2ccccc2Cl)C(c2ccc(-c3cccc(OC(F)(F)F)c3)cc2)C1)(C(F)(F)F)C(F)(F)F` (stereo not shown) [Example 248, 1-(2-chloro-phenyl)-5-[3′-(trifluoromethoxy)-biphenyl-4-yl]-3-[di-(trifluoromethyl)-hydroxy-methyl]-4,5-dihydro-1H-pyrazole], which Emax is on record?
A: 43 fold

Q: What about the EC50 of the same molecule?
A: 2480 nM

Q: What does the source list for `Cc1ccccc1-c1ccc(C2CC(C(O)(C(F)(F)F)C(F)(F)F)=NN2c2ccccc2Cl)cc1` (stereo not shown) [Example 249, 1-(2-chloro-phenyl)-5-(2′-methyl-biphenyl-4-yl)-3-[di-(trifluoromethyl)-hydroxy-methyl]-4,5-dihydro-1H-pyrazole]?
A: Emax: 115 fold; EC50: 784 nM

Q: What does the source list for `Cc1ccc(-c2ccc(C3CC(C(O)(C(F)(F)F)C(F)(F)F)=NN3c3ccccc3Cl)cc2)cc1` (stereo not shown) [Example 250, 1-(2-chloro-phenyl)-5-(4′-methyl-biphenyl-4-yl)-3-[di-(trifluoromethyl)-hydroxy-methyl]-4,5-dihydro-1H-pyrazole]?
A: Emax: 107 fold; EC50: 625 nM

Q: How did the Emax turn out when `CCOc1cccc(-c2ccc(C3CC(C(O)(C(F)(F)F)C(F)(F)F)=NN3c3ccccc3Cl)cc2)c1` (stereo not shown) [Example 251, 1-(2-chloro-phenyl)-5-(3′-ethoxy-biphenyl-4-yl)-3-[di-(trifluoromethyl)-hydroxy-methyl]-4,5-dihydro-1H-pyrazole] was run?
A: 96 fold

Q: And the EC50?
A: 1950 nM

Q: For `Oc1cccc(-c2ccc(C3CC(C(O)(C(F)(F)F)C(F)(F)F)=NN3c3ccccc3Cl)cc2)c1` (stereo not shown) [Example 252, 1-(2-chloro-phenyl)-5-(3′-hydroxy-biphenyl-4-yl)-3-[di-(trifluoromethyl)-hydroxy-methyl]-4,5-dihydro-1H-pyrazole], which Emax is on record?
A: 62 fold

Q: And the EC50?
A: 2350 nM

Q: What does the source list for `Nc1cccc(-c2ccc(C3CC(C(O)(C(F)(F)F)C(F)(F)F)=NN3c3ccccc3Cl)cc2)c1` (stereo not shown) [Example 253, 5-(3′-amino-biphenyl-4-yl)-1-(2-chloro-phenyl)-3-[di-(trifluoromethyl)-hydroxy-methyl]-4,5-dihydro-1H-pyrazole]?
A: Emax: 55 fold; EC50: 1070 nM

Q: `CN(C)c1ccc(-c2ccc(C3CC(C(O)(C(F)(F)F)C(F)(F)F)=NN3c3ccccc3Cl)cc2)cc1` (stereo not shown) [Example 254, 1-(2-chloro-phenyl)-5-(4′-dimethylamino-biphenyl-4-yl)-3-[di-(trifluoromethyl)-hydroxy-methyl]-4,5-dihydro-1H-pyrazole] was tested. Which Emax did it give?
A: 50 fold

Q: What about the EC50 of the same molecule?
A: 7060 nM

Q: With `COc1ccc(-c2ccc(C3CC(C(O)(C(F)(F)F)C(F)(F)F)=NN3c3ccccc3Cl)cc2)c(Cl)c1` (stereo not shown) [Example 255, 5-(2′-chloro-4′-methoxy-biphenyl-4-yl)-1-(2-chloro-phenyl)-3-[di-(trifluoromethyl)-hydroxy-methyl]-4,5-dihydro-1H-pyrazole] as the molecule, how does the Emax read?
A: 58 fold

Q: What about the EC50 of the same molecule?
A: 1080 nM

Q: `OC(C1=NN(c2ccccc2Cl)C(c2ccc(-c3ccc(F)c(Cl)c3)cc2)C1)(C(F)(F)F)C(F)(F)F` (stereo not shown) [Example 256, 5-(3′-chloro-4′-fluoro-biphenyl-4-yl)-1-(2-chloro-phenyl)-3-[di-(trifluoromethyl)-hydroxy-methyl]-4,5-dihydro-1H-pyrazole] was tested. Which Emax did it give?
A: 51 fold

Q: What about the EC50 of the same molecule?
A: 729 nM

Q: Which Emax does the source give for `OC(C1=NN(c2ccccc2Cl)C(c2ccc(-c3ccoc3)cc2)C1)(C(F)(F)F)C(F)(F)F` (stereo not shown) [Example 257, 1-(2-chloro-phenyl)-5-(4-furan-3-yl-phenyl)-3-[di-(trifluoromethyl)-hydroxy-methyl]-4,5-dihydro-1H-pyrazole] here?
A: 57 fold

Q: What about the EC50 of the same molecule?
A: 1840 nM

Q: Which results are given for `OC(C1=NN(c2ccccc2Cl)C(c2ccc(-c3cncnc3)cc2)C1)(C(F)(F)F)C(F)(F)F` (stereo not shown) [Example 258, 1-(2-chloro-phenyl)-5-(4-pyrimidin-5-yl-phenyl)-3-[di-(trifluoromethyl)-hydroxy-methyl]-4,5-dihydro-1H-pyrazole]?
A: Emax: 62 fold; EC50: 302 nM

Q: For `OC(C1=NN(c2ccccc2Cl)C(c2ccc(-c3cnc4ccccc4c3)cc2)C1)(C(F)(F)F)C(F)(F)F` (stereo not shown) [Example 259, 1-(2-chloro-phenyl)-5-(4-quinolin-3-yl-phenyl)-3-[di-(trifluoromethyl)-hydroxy-methyl]-4,5-dihydro-1H-pyrazole], which Emax is on record?
A: 57 fold

Q: And the EC50?
A: 519 nM

Q: Which Emax does the source give for `COc1ccc(-c2ccc(C3CC(C(O)(C(F)(F)F)C(F)(F)F)=NN3c3ccccc3Cl)cc2)cn1` (stereo not shown) [Example 260, 1-(2-chloro-phenyl)-5-[4-(6-methoxy-pyridin-3-yl)-phenyl]-3-[di-(trifluoromethyl)-hydroxy-methyl]-4,5-dihydro-1H-pyrazole] here?
A: 47 fold

Q: What about the EC50 of the same molecule?
A: 1870 nM

Q: For `OC(C1=NN(c2ccccc2Cl)C(c2ccc(-c3cccnc3F)cc2)C1)(C(F)(F)F)C(F)(F)F` (stereo not shown) [Example 261, 1-(2-chloro-phenyl)-5-[4-(2-fluoro-pyridin-3-yl)-phenyl]-3-[di-(trifluoromethyl)-hydroxy-methyl]-4,5-dihydro-1H-pyrazole], which Emax is on record?
A: 54 fold

Q: And the EC50?
A: 699 nM

Q: `OC(C1=NN(c2ccccc2Cl)C(c2ccc(-c3cc4ccccc4o3)cc2)C1)(C(F)(F)F)C(F)(F)F` (stereo not shown) [Example 262, 5-(4-benzofuran-2-yl-phenyl)-1-(2-chloro-phenyl)-3-[di-(trifluoromethyl)-hydroxy-methyl]-4,5-dihydro-1H-pyrazole] was tested. Which Emax did it give?
A: 92 fold

Q: And the EC50?
A: 6860 nM

Q: Which results are given for `OC(C1=NN(c2ccccc2Cl)C(c2ccc(-c3cc4ccccc4s3)cc2)C1)(C(F)(F)F)C(F)(F)F` (stereo not shown) [Example 263, 5-(4-benzo[b]thiophen-2-yl-phenyl)-1-(2-chloro-phenyl)-3-[di-(trifluoromethyl)-hydroxy-methyl]-4,5-dihydro-1H-pyrazole]?
A: Emax: 72 fold; EC50: 1270 nM

Q: Which results are given for `Cc1ccc(-c2ccc(C3CC(C(O)(C(F)(F)F)C(F)(F)F)=NN3c3ccccc3Cl)cc2)c(F)c1` (stereo not shown) [Example 265, 1-(2-chloro-phenyl)-5-(2′-fluoro-4′-methyl-biphenyl-4-yl)-3-[di-(trifluoromethyl)-hydroxy-methyl]-4,5-dihydro-1H-pyrazole]?
A: Emax: 97 fold; EC50: 239 nM

Q: With `CSc1ccc(-c2ccc(C3CC(C(O)(C(F)(F)F)C(F)(F)F)=NN3c3ccccc3Cl)cc2)cn1` (stereo not shown) [Example 266, 1-(2-chloro-phenyl)-5-[4-(6-methylsulfanyl-pyridin-3-yl)-phenyl]-3-[di-(trifluoromethyl)-hydroxy-methyl]-4,5-dihydro-1H-pyrazole] as the molecule, how does the Emax read?
A: 80 fold

Q: And the EC50?
A: 1390 nM
